Experiment [1] deals with TAG. Briefly: triacylglycerol accumulation inhibitor potency, dose response, cell-based, panel, Nile Red and DAPI fluorescence, H9c2 (AID 651630).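 Also: cells exposed to compound overnight before fixation and staining.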 The following applies: H9c2 cells, Nile Red TAG fluorescence, oleic acid.
For experiment [2], the system named is DAPI. The experiment is described as above. The following applies: H9c2 cells, DAPI nuclear fluorescence (cytotoxicity counter-readout), oleic acid.

Calls of active or inactive are those of the source.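 The calls were made as follows: active = lipid-stain IC50 at or below a set limit, with nuclear-stain toxicity IC50 at least five times higher; inactive = the rest.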 A value given as a limit tells only on which side of the number the result lay.

Usually IC50 stands for the midpoint of a concentration-inhibition curve. As to `CN(Cc1ccccc1)C(=O)c1ccc(Nc2nc(C(N)Cc3ccccc3)cs2)nc1` (configuration not stated), the half-inhibitory concentration (IC50) in experiment [1] (run 1) was 20.9 µM; in experiment [1] (run 2), more than 25 µM. The IC50 cytotoxicity (DAPI nuclear signal decrease) is > 25 µM (inactive) in experiment [2] (mean of runs), more than 25 µM in experiment [2] (run 1) and more than 25 µM in experiment [2] (run 2).

With `O=C(Cc1n[nH]c(=O)c2ccccc12)OCC(=O)c1ccc2c(c1)OCCO2`, the IC50 is > 25 µM (inactive) in experiment [1] (mean of runs), more than 25 µM in experiment [1] (run 1) and more than 25 µM in experiment [1] (run 2). Further, the IC50 cytotoxicity (DAPI nuclear signal decrease) is > 25 µM (inactive) in experiment [2] (mean of runs), more than 25 µM in experiment [2] (run 1) and more than 25 µM in experiment [2] (run 2).

Take `Cc1nn2c(N3CCN(C)CC3)c3c(nc2c1-c1ccccc1)CCCC3`: the IC50 in experiment [1] (mean of runs) is > 25 µM (inactive); in experiment [1] (run 1), more than 25 µM; in experiment [1] (run 2), more than 25 µM. Further, the IC50 cytotoxicity (DAPI nuclear signal decrease) in experiment [2] (mean of runs) is > 25 µM (inactive); in experiment [2] (run 1) it was more than 25 µM; in experiment [2] (run 2) it was more than 25 µM.

`CCOC(=O)[C@H]1[C@H]2COc3ccc(C)cc3[C@@H]2N2C(=O)c3cc(Br)ccc3NC(=O)[C@@]12C`: the IC50 in experiment [1] (mean of runs) was 21.6 µM (inactive); in experiment [1] (run 1) it was 22.2 µM; in experiment [1] (run 2), 21 µM. Moreover, the IC50 cytotoxicity (DAPI nuclear signal decrease) in experiment [2] (mean of runs) is > 25 µM (inactive); in experiment [2] (run 1), more than 25 µM; in experiment [2] (run 2) it was more than 25 µM.

On to `O=C(NCCCCCCCN1CCCCCCC1)C(C1CCCCC1)C1CCCCC1`, for which the IC50 is 17.8 µM (inactive) in experiment [1] (mean of runs), 15.9 µM in experiment [1] (run 1) and 19.7 µM in experiment [1] (run 2). Further, the figures for the IC50 cytotoxicity (DAPI nuclear signal decrease) in experiment [2] (mean of runs), in experiment [2] (run 1) and in experiment [2] (run 2) were > 25 µM (inactive), more than 25 µM and more than 25 µM, respectively.

`Cn1nc(-c2ccc(Cl)cc2)c2cc(C(=O)NC3CC3)sc21`: the IC50 was 10.8 µM in experiment [1] (mean of runs), 13 µM in experiment [1] (run 1) and 8.58 µM in experiment [1] (run 2). For the same compound, the IC50 cytotoxicity (DAPI nuclear signal decrease) in experiment [2] (mean of runs) was > 25 µM (inactive); in experiment [2] (run 1), more than 25 µM; in experiment [2] (run 2), more than 25 µM.

With `COc1ccc2c(c1)c(CC(=O)Nc1ccc(C)cc1)c(C)n2C(=O)c1ccc(Cl)cc1`, the values for the half-inhibitory concentration (IC50) in experiment [1] (run 1) and in experiment [1] (run 2) were 20.1 µM and more than 25 µM, respectively. Also, the IC50 cytotoxicity (DAPI nuclear signal decrease) was > 25 µM (inactive) in experiment [2] (mean of runs), more than 25 µM in experiment [2] (run 1) and more than 25 µM in experiment [2] (run 2).

As for `COc1ccc(-c2cc(CNc3nc(NC(C)C)nc4cc(-c5ccccc5)sc34)on2)cc1`, the IC50 in experiment [1] (mean of runs) was 6.39 µM; in experiment [1] (run 1), 6.47 µM; in experiment [1] (run 2) it was 6.31 µM. Further, the IC50 cytotoxicity (DAPI nuclear signal decrease) was > 25 µM (inactive) in experiment [2] (mean of runs), more than 25 µM in experiment [2] (run 1) and more than 25 µM in experiment [2] (run 2).

On to `COc1ccc(NS(=O)(=O)c2cc(C)ccc2NC(=O)c2cc(C)oc2C)cc1`, for which the IC50 in experiment [1] (mean of runs) was 8.59 µM; in experiment [1] (run 1) it was 9.83 µM; in experiment [1] (run 2) it was 7.35 µM. The figures for the IC50 cytotoxicity (DAPI nuclear signal decrease) in experiment [2] (mean of runs), in experiment [2] (run 1) and in experiment [2] (run 2) were > 25 µM (inactive), more than 25 µM and more than 25 µM, respectively.

Regarding `COc1ccc(C2=CC(c3ccc4c(c3)OCO4)c3c(c4ccccc4oc3=O)O2)cc1OC` (configuration not stated), the figures for the IC50 in experiment [1] (mean of runs), in experiment [1] (run 1) and in experiment [1] (run 2) were 18.8 µM (inactive), 20.6 µM and 17 µM, respectively. The IC50 cytotoxicity (DAPI nuclear signal decrease) is > 25 µM (inactive) in experiment [2] (mean of runs), more than 25 µM in experiment [2] (run 1) and more than 25 µM in experiment [2] (run 2).

Turning to `COc1cc(CNC(=O)Nc2nc(C(N)Cc3ccc(Cl)cc3)cs2)cc(OC)c1OC` (configuration not stated), the values for the IC50 in experiment [1] (mean of runs), in experiment [1] (run 1) and in experiment [1] (run 2) were 3.91 µM, 3.31 µM and 4.5 µM, respectively. Further, the IC50 cytotoxicity (DAPI nuclear signal decrease) in experiment [2] (run 1) and in experiment [2] (run 2) was more than 25 µM throughout.

As for `Cc1cc(NC(=O)CSc2nc(C(C)C)nc3sc4c(c23)CCC(C)C4)no1` (configuration not stated), the IC50 was > 25 µM (inactive) in experiment [1] (mean of runs), more than 25 µM in experiment [1] (run 1) and more than 25 µM in experiment [1] (run 2). The IC50 cytotoxicity (DAPI nuclear signal decrease) is > 25 µM (inactive) in experiment [2] (mean of runs), more than 25 µM in experiment [2] (run 1) and more than 25 µM in experiment [2] (run 2).

As to `CCOC(=O)[C@H]1[C@H]2COc3ccc(Cl)cc3[C@@H]2N2C(=O)c3cc(Cl)ccc3NC(=O)[C@@]12C`, the IC50 in experiment [1] (mean of runs) was 9.03 µM; in experiment [1] (run 1), 11.6 µM; in experiment [1] (run 2), 6.41 µM. The IC50 cytotoxicity (DAPI nuclear signal decrease) in experiment [2] (mean of runs) was > 25 µM (inactive); in experiment [2] (run 1), more than 25 µM; in experiment [2] (run 2), more than 25 µM.

On to `COc1cc(Cn2c(-c3nonc3N)nc3ccccc32)ccc1C`, for which the IC50 is 24.4 µM in experiment [1] (run 1) and more than 25 µM in experiment [1] (run 2). Moreover, the IC50 cytotoxicity (DAPI nuclear signal decrease) in experiment [2] (mean of runs) was > 25 µM (inactive); in experiment [2] (run 1) it was more than 25 µM; in experiment [2] (run 2) it was more than 25 µM.

As for `Cc1cc(NC(=O)CC2CCCC2)n(-c2nc3ccccc3[nH]2)n1`, the IC50 is more than 25 µM in experiment [1] (run 1) and 11.2 µM in experiment [1] (run 2). Besides, the IC50 cytotoxicity (DAPI nuclear signal decrease) was > 25 µM (inactive) in experiment [2] (mean of runs), more than 25 µM in experiment [2] (run 1) and more than 25 µM in experiment [2] (run 2).

On to `O=C(Nc1cccc(-c2csc(Nc3cccc(C(F)(F)F)c3)n2)c1)c1cc([N+](=O)[O-])cc(C(F)(F)F)c1`, for which the IC50 in experiment [1] (mean of runs) was > 25 µM (inactive); in experiment [1] (run 1), more than 25 µM; in experiment [1] (run 2) it was more than 25 µM. Further, the IC50 cytotoxicity (DAPI nuclear signal decrease) in experiment [2] (mean of runs) is > 25 µM (inactive); in experiment [2] (run 1), more than 25 µM; in experiment [2] (run 2), more than 25 µM.

For the compound `Cc1ccc(-c2nn(-c3ccccc3)cc2NC(=O)CCl)cc1`, the results for the IC50 in experiment [1] (mean of runs), in experiment [1] (run 1) and in experiment [1] (run 2) were > 25 µM (inactive), more than 25 µM and more than 25 µM, respectively. Also, the IC50 cytotoxicity (DAPI nuclear signal decrease) in experiment [2] (run 1) is 20.6 µM; in experiment [2] (run 2), more than 25 µM.

With `Cc1ccc2nc3n(c(=O)c2c1)-c1cc2ccccc2cc1C(=O)NC3Cc1ccc(O)cc1` (configuration not stated), the values for the IC50 in experiment [1] (run 1) and in experiment [1] (run 2) were 24.9 µM and more than 25 µM, respectively. In addition, the IC50 cytotoxicity (DAPI nuclear signal decrease) in experiment [2] (mean of runs) is > 25 µM (inactive); in experiment [2] (run 1), more than 25 µM; in experiment [2] (run 2), more than 25 µM.

Consider `Clc1cccc(Nc2nc(-c3ccncc3)nc3ccccc23)c1`, for which the IC50 was 18.9 µM in experiment [1] (run 1) and more than 25 µM in experiment [1] (run 2). Further, the IC50 cytotoxicity (DAPI nuclear signal decrease) in experiment [2] (mean of runs) was > 25 µM (inactive); in experiment [2] (run 1), more than 25 µM; in experiment [2] (run 2) it was more than 25 µM.

Turning to `C=CCn1c(SCc2c(C)noc2C)nc2sc3c(c2c1=O)CCC(C)C3` (configuration not stated), the IC50 in experiment [1] (mean of runs) is > 25 µM (inactive); in experiment [1] (run 1), more than 25 µM; in experiment [1] (run 2), more than 25 µM. The IC50 cytotoxicity (DAPI nuclear signal decrease) in experiment [2] (mean of runs) is > 25 µM (inactive); in experiment [2] (run 1), more than 25 µM; in experiment [2] (run 2), more than 25 µM.

The values are drawn from PubChem BioAssay AID651630 (Sanford-Burnham Center for Chemical Genomics, 2012).
